USRE29675E, “O-(Halophenylcarbamyl)-N-(halophenyl) glycolamides” (Stauffer Chemical Company, priority 1977, dated 1978)
Values after ≈ are worked out from the molar mass of the structure shown.

Tests used:
Format in all cases: cell-based
stapylococcus aureus = experiment: In Vitro Vial Test (bactericidal, nutrient broth); conditions: 168 h, sealed vial incubated one week, read-out: Concentration (PPM) Which Inhibited Growth
Description: The following test illustrates utility of the compounds in controlling bacteria. This test measures the bactericidal properties of a compound when in contact with a growing bacterium. The test is conducted by partially filling a 1-ounce vial with nutrient broth. Next the test compound is added to the vial at a certain concentration, expressed in parts per million, and mixed with the broth. A water suspension of cells of stapylococcus aureus is added. The vial is then sealed and incubated for one week.

Enterobacter aerogenes = experiment: In Vitro Agar Screening Test, bacteria; conditions: Klebsiella aerogenes, nutrient agar, 37° C., indicates partial control at this concentration, read-out: Minimum Inhibitory Concentration
Description: (§1) This test measures the bactericidal, fungicidal and algaecidal properties of a compound when in contact with growing bacteria, fungi or algae in an artifical medium. The test is conducted by adding 20 ml. portions of a suitable warm sterile agar solution into 20 × 100 mm. Petri dishes. Then, the test compound, in 0.5 percent acetone solution, is added to the Petri dishes at levels of 1, 10 and 50 μg/ml. and mixed with the warm mobile agar solution. The treated agar mixture is then allowed to come to room temperature and solidify. Cells of the chosen organism are streaked on the surface of the solidified agar and are then incubated for such lengths of time that untreated samples containing no toxicant show luxurious growth typical of the particular organism. This time varies from 24 hours to one week depending on the particular organism. The fungi are incubated at 30° C. and the bacteria are incubated at 37° C. The algae are incubated at room temperature under artificial light. Nutrient agar is used as the medium in this test for the bacteria. Potato dextrose agar is used as the medium for the fungi with the exception of Trichophyton mentagrophytes for which Emmons agar is used. A modified Jack Meyers agar is used for the growth of the algae.
(§2) The extent of growth is noted at the end of the incubation period.
(§3) Representative organisms used in this test are as follows: […]

Staphylococcus aureus = experiment: In Vitro Agar Screening Test, bacteria; conditions: Stapylococcus aureus, nutrient agar, 37° C., read-out: Minimum Inhibitory Concentration
Description: as §1, §2, §3

[1] = system: Brevibacterium ammoniagenes; experiment: In Vitro Agar Screening Test, bacteria; conditions: Corynebacterium ammoniagenes, nutrient agar, 37° C., read-out: Minimum Inhibitory Concentration
Description: as §1, §2, §3

Aspergillus oryzae = experiment: In Vitro Agar Screening Test, fungi; conditions: potato dextrose agar, 30° C., read-out: Minimum Inhibitory Concentration
Description: as §1, §2, §3

[2] = system: Trichophyton mentagrophytes; experiment: In Vitro Agar Screening Test, fungi; conditions: Emmons agar, 30° C., indicates partial control at this concentration, read-out: Minimum Inhibitory Concentration
Description: as §1, §2, §3

Scenedesmus obliquus = experiment: In Vitro Agar Screening Test, algae; conditions: Tetradesmus obliquus, modified Jack Meyers agar, room temperature, artificial light, indicates partial control at this concentration, read-out: Minimum Inhibitory Concentration
Description: as §1, §2, §3

[3] = system: Desulfovibrio desulfuricans; experiment: Sulfate Reducing Bacteria In Vitro Test; conditions: Sulfate API broth with tryptone, anaerobic, room temperature, 3 to 5 days, unit from method text, read-out: minimum inhibitory concentration necessary to control the organism
Description: This test measures the bactericidal properties of a compound when in contact with a sulfate reducing bacteria, specifically Desulfovibrio desulfuricans. The test is conducted by dissolving the test compound in acetone to give an 0.5 percent solution. This toxicant is added to vials containing sterile Sulfate API broth with tryptone under anaerobic conditions at such levels to give final toxicant concentrations of 1, 5, 10 and 50 μg/ml. of solution. An inoculant solution of 0.5 ml of the growing organism, Desulfovibrio desulfuricans, is added to the vials followed by sufficient sterile distilled water to give a total of 10 ml. of solution in the vials. […] The following is a summary of the minimum inhibitory concentration necessary to control the organism.

Bacillus cereus = experiment: In Vitro Agar Screening Test, bacteria; conditions: nutrient agar, 37° C., indicates partial control at this concentration, read-out: Minimum Inhibitory Concentration
Description: as §1, §2, §3

Row | SMILES | MIC (stapylococcus aureus) [µg/mL] | MIC (Staphylococcus aureus) [µg/mL] | MIC [1] [µg/mL] | MIC (Aspergillus oryzae) [µg/mL] | MIC [3] [µg/mL] | further results
1 | O=C(COC(=O)Nc1ccc(Cl)cc1)Nc1ccc(Cl)c(Cl)c1 [Compound 1] | 0.25 (≈ 0.669 µM) | 1 (≈ 2.68 µM) | 5 (≈ 13.4 µM) | 5 (≈ 13.4 µM) | 50 (≈ 134 µM) | MIC (Enterobacter aerogenes): 1 µg/mL (≈ 2.68 µM); MIC [2]: 5 µg/mL (≈ 13.4 µM); MIC (Scenedesmus obliquus): 1 µg/mL (≈ 2.68 µM)
2 | O=C(COC(=O)Nc1cccc(Cl)c1)Nc1ccc(Cl)c(Cl)c1 [Compound 2, O-(3-Chlorophenylcarbamyl)-N-(3,4-dichlorophenyl)-glycolamide] | 0.25 (≈ 0.669 µM) | 1 (≈ 2.68 µM) | 5 (≈ 13.4 µM) | > 50 | 10 (≈ 26.8 µM) | MIC (Bacillus cereus): 1 µg/mL (≈ 2.68 µM)
3 | O=C(COC(=O)Nc1cccc(Cl)c1)Nc1ccc(Cl)cc1 [Compound 3] | 5 (≈ 14.7 µM) | – | – | – | – | –
4 | O=C(COC(=O)Nc1ccc(Cl)c(Cl)c1)Nc1ccc(Cl)cc1 [Compound 4] | 1 (≈ 2.68 µM) | – | – | – | – | –
5 | O=C(COC(=O)Nc1ccc(Cl)c(Cl)c1)Nc1ccc(Cl)c(Cl)c1 [Compound 5] | 1 (≈ 2.45 µM) | – | – | – | – | –
6 | O=C(COC(=O)Nc1cccc(Br)c1)Nc1ccc(Cl)c(Cl)c1 [Compound 6] | 0.5 (≈ 1.2 µM) | – | – | – | – | –
